{
  "source": "patent US10172916B2",
  "about": "“Methods of treating heart failure with agonists of hypocretin receptor 2” (The Board of Trustees of the Leland Stanford Junior …, priority 2013, dated 2019)",
  "system": "wild-type C57BL/6 mice stressed with angiotensin II+isoproterenol infusion (heart failure model)",
  "experiment": "Orexin A minipump infusion in mice stressed with angiotensin II + isoproterenol, echocardiography",
  "format": "in vivo, mouse",
  "method": "Finally, to assess the potential of HCRTR2 as a novel therapeutic target for heart failure, wild-type mice were infused with saline (n=6) or the HCRTR2 agonist orexin A (n=7) for four weeks. At week two, all mice underwent infusion of angiotensin II and isoproterenol, neurohormones that mimic human heart failure. Echocardiography was performed blinded to drug infusion status at baseline, 2, 3 and 4 weeks (FIG. 3H).\nExperimental mice were anesthetized with 1.5% isoflurane by a facemask. The Alzet osmotic minipumps (Model 2002 or 2004) from the Alzet Corporation (Cupertino, Calif., USA) were implanted subcutaneously in the back of mice, posterior to the scapulae. 14-week-old C57BL/6 mice were treated with either saline or orexin A (50 μg/kg/day) infusions using an Alzet (Cupertino, Calif.) osmotic minipump model 2004 (200 μl reservoir, 28-day release at 0.25 μl/hr) for a total of 4 weeks. At week 2, all mice were treated with angiotensin II (1.4 mg/kg/day) plus isoproterenol (15 mg/kg/day) infusion using an additional Alzet osmotic minipump, model 2002 (200 μl reservoir, 14-day release at 0.5 μl/hr) for two weeks, starting 2 weeks after initiation of the saline or orexin A infusion. Mice had echocardiography performed at baseline and weeks 2, 3 and 4.\nFor noninvasive echocardiography, mice were anesthetized with isoflurane via nose cone (maintenance: 1.5% isoflurane mixed with 1 L/minute 100% medical oxygen to obtain heart rate of 450±50 beats per minute). Mouse body temperature was monitored with a rectal thermometer. […]\nTwo-dimensional imaging (B-mode) was used to obtain a view of left and right ventricular movement during diastole and systole along the parasternal short axis. […] Early (E) wave was measured as the peak velocity during filling of the ventricle, and atrial (A) wave was measured as the peak velocity during atrial contraction, at the end of diastole. […] All data and images were saved and analyzed using a Vevo 2100 advanced cardiovascular package software with a semi-automated quantification of cardiac function (V 1.4.0 VisualSonics, Toronto, ON, Canada).",
  "note": "Ends that are not written are not given here.",
  "data": [
    {"substance": "orexin A (QPLPDCCRQKTCSCRLYELLHGAGNHAAGILTL; ends and bridges not checked; cysteine pairing not given here; UniProt O43612 34-66, looked up) [HCRTR2 agonist]", "values": [
      {"measurement": "Ejection Fraction", "setting": "WT mice, orexin A 50 μg/kg/day infusion for 4 weeks, angiotensin II+isoproterenol during latter 2 weeks, week 4, n=7, p=0.045 vs saline", "result": 56.6, "unit": "%+/−4.5"},
      {"measurement": "heart function in a mouse model of heart failure", "setting": "summary statement", "result": "successful in rescuing heart function"},
      {"measurement": "systolic function compared to saline controls", "setting": "wild-type mice, four weeks infusion, angiotensin II and isoproterenol from week two, p=0.045", "result": "better systolic function compared to controls"}
    ]}
  ]
}
